Data taken from patent US5668128A, “Aziridine derivatives, their production and use” (Takeda Chemical Industries, Ltd., priority 1994, dated 1997).
Structures can show the parent of a compound that is named as a salt.

Tests used:
[1] = biological target: T1, human recombinant cathepsin L (Homo sapiens, UniProt P07711); assay: Determination of cathepsin L inhibitory activity; assay type: biochemical; settings: pH 5.5, 37° C., 20 minutes, Z-Phe-Arg-7MCA substrate; read-out: Inhibitory activity potency IC50 (ng/ml) Cathepsin L (converted)
T1 construct: they were identified as a precursor of human cathepsin L and a product processed therefrom, estimated from these molecular weights; made in house; host or cells: mouse myeloma Sp2/0 cells transformed with pTBN-HCLneo (Sp-HCL26); purified from serum-free culture supernatant on CM-Sephadex C-50 and Mono S
Method: The bioactivities of the compounds of this invention are described below. The compounds [I] or salts thereof have activities of inhibiting cathepsin L and cathepsin B, and of potently inhibiting thiol protease. Their inhibitory activities against cathepsin L were determined by the methods described below.
Determination of cathepsin L inhibitory activity
To 75 μl of a reaction mixture containing 1 ng of human recombinant cathepsin L (as produced in Reference Examples 1 through 7 below), 2 μM of dithiothreitol (hereinafter abbreviated as DTT), 1 mM of ethylenediamine tetraacetate disodium salt, a 0.1M sodium acetate buffer solution (pH 5.5) and various concentrations of test samples, 25 μl of 20 μM benzyloxycarbonyl-L-phenylalanyl-L-arginine-4-methylcoumaryl-7-amide (hereinafter abbreviated as Z-Phe-Arg-7MCA, manufactured by Peptide Institute) was added to initiate the reaction. After incubation at 37° C. for 20 minutes, 100 μl of a reaction stopper solution containing 100 mM sodium monochloroacetate was added. The amount of liberated 4-methyl-7-aminocoumarin was determined at an excitation wavelength of 365 nm and a fluorescence wavelength of 450 nm, using a fluorophotometer (FCA:manufactured by Baxter Travenol). The sample concentration required to cause 50% inhibition was expressed as the IC50 value, with the fluorescence value obtained from the same reaction in the absence of the sample taken as 100%.

[2] = tested on: bone resorption as enhanced by PTH (parathyroid hormone); assay: Determination of bone resorption suppressive activity (PTH-stimulated mouse femur culture); assay type: cell-based, female BALB/c mice; settings: 168 h, test compound 10 μg/ml, PTH 1 μM, cultured 7 days
Method: The compounds [I] or salts thereof of this invention show suppressive action against bone resorption as enhanced by PTH (parathyroid hormone), and the action was determined by method described below. Determination of bone resorption suppressive activity
Femurs were aseptically isolated from female BALB/c mice at 8-10 weeks of age. After the bone marrow cavity was washed with a Ham F12 medium containing 10 weight % thermally inactivated fetal calf serum, 100 unit/ml penicillin G and 100 unit/ml streptomycin (hereinafter referred to as culture broth), each femur was added to 1 ml of the culture broth and precultured for 3 hours at 37° C. in the presence of 5% carbon dioxide and 95% air. Each bone was transferred to 1 ml of the culture broth supplemented with PTH (manufactured by Peptide Institute, Inc., final concentration 1 μM) and the test compound (final concentration 10 μg/ml) and cultured for 7 more days, after which the total calcium content in the culture broth was determined using Calcium E-Test Wako (manufactured by Wako Pure Chemical Industries, Ltd.). The bone resorption suppressive activity of the test compound was calculated using the following equation.
Bone resorption suppressive activity (%)=100×(Cp-Cs)/(Cp-Cc)
Cc: Total calcium content in the culture broth containing neither PTH nor test compound
Cp: Total calcium content in the culture broth containing PTH […]

mice = assay: Toxicity study; assay type: in vivo; settings: intravenously or intraperitoneally, 1,000 mg/kg
Method: Compound 4 caused no death in mice when it was intravenously or intraperitoneally administered at 1,000 mg/kg.

T1 sequence (P07711 114-333): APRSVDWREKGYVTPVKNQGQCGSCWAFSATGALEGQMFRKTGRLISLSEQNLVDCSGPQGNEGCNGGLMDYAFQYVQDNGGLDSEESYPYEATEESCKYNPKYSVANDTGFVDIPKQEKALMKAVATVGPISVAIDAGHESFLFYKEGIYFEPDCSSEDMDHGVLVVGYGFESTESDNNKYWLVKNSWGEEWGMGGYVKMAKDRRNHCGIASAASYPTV

Q: Which IC50 [1] does the source give for `CCN1[C@H](C(=O)O)[C@H]1C(=O)N[C@@H](Cc1ccccc1)C(=O)NCCC(C)C` (stereo partly drawn) [Compound 45, N-[N-[(2S,3S)-N-Ethyl-3-Carboxyaziridine-2-carbonyl]-L-phenylalanyl]isopentylamine Sodium Salt] here?
A: 0.252 nM

Q: For `CC(C)CCNC(=O)[C@H](Cc1ccccc1)NC(=O)[C@@H]1[C@@H](C(=O)O)N1C` (stereo partly drawn) [Compound 43, N-[N-[(2S,3S)-N-Methyl-3-carboxyaziridine-2-carbonyl]-L-phenylalanyl]isopentylamine Sodium Salt], which IC50 [1] is on record?
A: 0.522 nM

Q: With `NCCCCNC(=O)[C@H](Cc1ccccc1)NC(=O)[C@H]1N[C@@H]1C(=O)O` [Compound 7, N-[N-[(2S,3S)-3-carboxyaziridine-2-carbonyl]-L-phenylalanyl]-1,4-diaminobutane] as the compound, how does the IC50 [1] read?
A: 8.61 nM

Q: And the activity at 10 µg/mL [2]?
A: 99%

Q: How did the IC50 [1] turn out when `CC(C)CCNC(=O)[C@H](Cc1ccccc1)NC(=O)[C@H]1N[C@@H]1C(=O)[O-].[Na+]` [Compound 4, N-[N-[(2S,3S)-3-Carboxyaziridine-2-carbonyl]-L-phenylalanyl]isopentylamine sodium salt] was run?
A: 13.5 nM

Q: What about the death in mice (mice) of the same compound?
A: no death
